# Measurements from patent publication US12558367B2, “Nicotinamide riboside and derivatives thereof in intravenous formulations and methods of use thereof” (ChromaDex Inc., priority 2023, dated 2026).
# Experiments:
# Assay type in all cases: in vivo, human
# [1] = Energy/Fatigue Scale, randomized placebo-controlled pilot clinical study (Study 1); details: for Mental Energy / Perceived Fatigue: possible scores 5-30; for General Energy / Motivation: possible scores 6-36; for Physical Energy: possible scores 7-42; for Emotional Energy: possible scores 8-48
# Protocol: (§1) The present randomized, double-blinded, placebo-controlled, pilot clinical study was initiated with the primary aim of investigating the safety, tolerability, and the blood NAD+-boosting efficacy of an acute, single dose of NR IV (500 mg, test), NAD+ IV (500 mg, active comparator), oral NR (500 mg, bridge), and saline IV (placebo control) in generally healthy adult participants. The study consisted of two parts; data from 37 and 16 participants in the first and second phases, respectively, were analyzed.
# (§2) This was a 2-part study. The first study was a 4-arm randomized, placebo-controlled parallel trial. The 3 IV arms were double-blinded, while the 4th arm involved oral administration making it naturally unblinded. Participants were randomized at a 10:10:10:6 ratio to intravenous placebo (saline), NAD^+, NR, or oral NR (oral). The second study was a randomized parallel design trial with two arms for the purpose of evaluating the actual differences in infusion rates in real time. Participants were randomized at a 1:1 ratio to intravenous NR or NAD^+.
# (§3) Vials of 50 mg/ml of NR or NAD+ were prepared in 10 ml of sterile water by DCA Pharmacy (Franklin, Tennessee) by prescription, for research administration only, and maintained in refrigerated conditions until use. For participants who were randomized to the test group or to the active comparator group, the NR or NAD+ was added to 500 ml of normal saline (B Braun 0.9% sodium chloride injection USP, preservative free) prior to intravenous administration. Those randomly assigned to the saline group received 500 ml of normal saline. Participants that were randomly assigned to the oral arm were provided with 500 mg of NR which was taken with water.
# (§4) To assess vital signs and subdomains on the sleep and energy scales, between-groups comparisons were assessed using analysis of covariance (ANCOVA) with baseline scores as the covariate and a Bonferroni correction. Levene's test was used to check and confirm the assumption of homogeneity of variances.
# (§5) Tables A-D below reflect mean scores for each group at days 7 and 14. An ANCOVA was used to identify statistical significant differences, using baseline scores as the covariate which helps to account for the natural variation in psychological measurements, increasing the power of the study.
# It is noted that the energy scale measures disruptions to energy levels; lower scores reflect greater levels of energy.
# [2] = Sleep Scale, pilot clinical study (Study 1); details: for Sleep Maintenance: possible scores 3-18; for Sleep Latency: possible scores 4-24; for Cognitive Effects / Daytime Sleepiness / Emotional Effects / Productivity / Sleep Inertia: possible scores 5-30
# Protocol: as §1, §2, §3, §4, §5
# For the sleep scale, the greatest improvements were seen on the scale of sleep latency, which refers to the ability to fall asleep at night, and sleep-related cognitive effects.
# [3] = Vital signs post-intervention (Study 1); details: single 500 mg dose, mean (SD)
# Protocol: as §1
# (§6) The safety of the IV infusion was evaluated using a combination of endpoints, including tolerable infusion rate, total number of adverse effects, participant vital signs, a complete blood count (CBC), a comprehensive metabolic panel (CMP), glucose and insulin levels, and the participant's self-reported subjective experience.
# as §4
# For the first study, data from 37 patients were available for intent to treat analysis; for the second study, data from 16 patients were available for intent to treat analysis.
# [4] = Tolerable infusion rate / infusion duration, Study 2 (IV line fully open); details: males, rate decreased on request, mean (SD)
# Text: This was a 2-part study. The first study was a 4-arm randomized, placebo-controlled parallel trial. The 3 IV arms were double-blinded, while the 4th arm involved oral administration making it naturally unblinded. Participants were randomized at a 10:10:10:6 ratio to intravenous placebo (saline), NAD^+, NR, or oral NR (oral). The second study was a randomized parallel design trial with two arms for the purpose of evaluating the actual differences in infusion rates in real time. Participants were randomized at a 1:1 ratio to intravenous NR or NAD^+. […]
# In the first study, participants began the infusion at a rate of 20 drops per minute for the first 15 minutes to ensure safety and comfort. […] Participants were closely monitored for the duration of the infusion, and the infusion rate was decreased, as applicable, upon participant request.
# Additional analyses were conducted using GraphPad Prism (Ver. 10.0.2). Statistical significance was determined as p<0.05, with comparisons of the test articles compared to saline or between group comparisons. […] Time in chair was analyzed for study 1 by a one-way ANOVA with multiple comparisons, study 2 was analyzed by unpaired t-test. The baseline variable of age was analyzed for differences by one way ANOVA with multiple comparisons for study.
# [5] = Hematology (complete blood count); details: for mean corpuscular volume (MCV): in fL (unit assumed)
# Protocol: as §6
# Between-groups comparisons of each outcome measured in the […] and CMP were evaluated using mixed between-within subjects ANOVA with the timepoint being the within subjects' factor and the group assignment as the between subjects factor. Mauchly's test of sphericity was used to confirm assumptions. Violations of the assumption of sphericity are addressed with the Greenhouse-Geisser correction.
# Additional analyses were conducted using GraphPad Prism (Ver. 10.0.2). Statistical significance was determined as p<0.05, with comparisons of the test articles compared to saline or between group comparisons. 2way ANOVA with Tukey's multiple comparisons test with a single pooled variance was used to determine significance in hematology, clinical chemistry, and vitals. Time in chair was analyzed for study 1 by a one-way ANOVA with multiple comparisons, study 2 was analyzed by unpaired t-test. The baseline variable of age was analyzed for differences by one way ANOVA with multiple comparisons for study.
# whole blood NAD+ = assay: NAD+ analysis of dried blood spots (DBS) by LC/MS; parameters: Mean NAD: unit not given here; details: for Mean NAD: dried blood spot
# Protocol: Finger punctures were conducted using a lancet. Blood was then applied to the circles on the dried blood spot (DBS) card and allowed to dry for a minimum of 3 hours. […] See, for example, FIG. 3. The use of dried blood spots (DBS) allowed for the analysis of NAD+ levels based upon samples that could be prepared at the clinic or by the study participants from home. While 36 of 37 participants in study 1 utilized the DBS at all time points, not all samples were analyzable. […] However, the model was significant for the 3-hour timepoint (p=0.010; […] At 6 hours, near-significant differences were observed between the NAD+ and NR IV group (t=1.99, p=0.055), and significant differences were observed between the NR IV and saline groups (t=−2.80, p=0.009), and between the NR IV and oral NR groups (t=−2.59, p=0.015). See, Tables 3-9 below. Tables 3-9 below reflect mean/SD for each group at each of the 7 timepoints. A basic ANOVA was conducted to investigate the data.
# [6] = Energy/Fatigue Scale Day 7, mean score, lower = greater energy
# [7] = Energy/Fatigue Scale Day 14, mean score, lower = greater energy
# [8] = 3 hours post infusion, mean ± SD
smiles,measurement,setting,value
"NC(=O)c1ccc[n+]([C@@H]2O[C@H](COP(=O)([O-])OP(=O)(O)OC[C@H]3O[C@@H](n4cnc5c(N)ncnc54)[C@H](O)[C@@H]3O)[C@@H](O)[C@H]2O)c1 [NAD+ IV, Nicotinamide Adenine Dinucleotide]",Mental Energy,[1]; [6],13.13
same,Perceived Fatigue,[1]; [6],15.75
same,General Energy,[1]; [6],20.63
same,Motivation,[1]; [6],11.13
same,Physical Energy,"[1]; Energy/Fatigue Scale Day 7, mean score, lower scores = greater energy, single 500 mg dose",19.63
same,Emotional Energy,[1]; [6],31.75
same,Mental Energy,[1]; [7],14.50
same,Perceived Fatigue,[1]; [7],15.50
same,General Energy,[1]; [7],20.13
same,Motivation,[1]; [7],13.50
same,Physical Energy,[1]; [7],18.50
same,Emotional Energy,[1]; [7],29.63
same,Sleep Maintenance,"[2]; Sleep Scale Day 7, mean score",8.88
same,Sleep Latency,"[2]; Sleep Scale Day 7, mean score",11.63
same,Cognitive Effects,"[2]; Sleep Scale Day 7, mean score",15.50
same,Daytime Sleepiness,"[2]; Sleep Scale Day 7, mean score",17.63
same,Emotional Effects,"[2]; Sleep Scale Day 7, mean score",15.75
same,Productivity,"[2]; Sleep Scale Day 7, mean score",13.86
same,Sleep Inertia,"[2]; Sleep Scale Day 7, mean score",17.38
same,Sleep Maintenance,"[2]; Sleep Scale Day 14, mean score",8.25
same,Sleep Latency,"[2]; Sleep Scale Day 14, mean score",10.75
same,Cognitive Effects,"[2]; Sleep Scale Day 14, mean score",15.63
same,Daytime Sleepiness,"[2]; Sleep Scale Day 14, mean score",16.88
same,Emotional Effects,"[2]; Sleep Scale Day 14, mean score",16.38
same,Productivity,"[2]; Sleep Scale Day 14, mean score",13.25
same,Sleep Inertia,"[2]; Sleep Scale Day 14, mean score",16.00
same,Post-intervention diastolic blood pressure,[3],73.40 (SD: 13.15) mmHg
same,Post-intervention heart rate,[3],68.40 (SD: 8.10) beats per minute
same,Post-intervention systolic blood pressure,[3],117.20 (SD: 14.54) mmHg
same,average infusion rate (total infusion time),[4],98.88 (SD: 46.70) minutes
same,White blood cell count,[5]; [8],6.990±2.386 Thousand/microliter
same,absolute neutrophils,[5]; [8],4724±2159 Cells/microliter
same,mean corpuscular volume (MCV),[5]; [8],87.38±3.991
same,mean corpuscular volume (MCV),"[5]; 24 hours post infusion, mean ± SD",87.34±3.035
same,elevations in white blood cells and neutrophils,[5]; baseline to three-hours post-infusion,clinically significant elevations in white blood cells and increases in absolute and percentage neutrophils
same,mean corpuscular volume (MCV),"[5]; baseline, mean ± SD",88.43±3.772
same,effect on whole blood NAD+,"whole blood NAD+; NR IV: at 3 hours relative to placebo and NAD+ IV, NAD+ IV: within 24 hours",did not significantly elevate
same,increase in whole blood NAD+ relative to baseline,whole blood NAD+; at 24 hours,2%
same,Mean NAD,whole blood NAD+; 3 Hours Post-Intervention,19.20
same,Mean NAD,whole blood NAD+; 6 Hours Post-Intervention,18.88
same,Mean NAD,whole blood NAD+; 24 Hours Post-Intervention,19.73
same,Mean NAD,whole blood NAD+; Baseline Scores,19.27
same,Mean NAD,whole blood NAD+; Immediately Post-Intervention (10 minutes after infusion),19.16
